# Results from US20110124657A1, “METHOD FOR SCREENING OF 5HT7 RECEPTOR LIGANDS BASED ON A NEW PHARMACOPHORE MODEL AND A DESCRIPTOR'S PROFILE FILTER” (LABORATORIOS DEL DR. ESTEVE, S.A., priority 2008, published 2011).
# Read-outs that look alike come from different tables or passages of the source.
# Target: T1, Cloned Human Serotonin Receptor, Subtype 7 (h5HT7), expressed in CHO cells (Homo sapiens, UniProt P34969)
# T1 construct: purchased PerkinElmer 6120512; host or cells: CHO cells (membranes coated on FlashPlate)
# Assay: Radioligand binding, [125I]LSD, Flashplate
# Details: for inhibition at 1 µM: read-out: %-Inhib. (10^−6 M)
# Protocol: Radioligand binding assays were performed using the Cloned Human Serotonin Receptor, Subtype 7 (h5HT7), expressed in CHO cells, coated on Flashplate (Basic FlashPlate Cat.: SMP200) from PerkinElmer (Cat.: 6120512). The protocol assay was essentially the recommended protocol in the Technical Data Sheet by PerkinEmer Life and Analytical Sciences. The Mass membrane protein/well was typically 12 μg and the Receptor/well was about 9-10 fmoles. The Flashplate were let equilibrate at room temperature for one hour before the addition of the components of the assay mixture. The binding buffer was: 50 mM Tris-HCl, pH 7.4, containing 10 mM MgCl2, 0.5 mM EDTA and 0.5% BSA. The radioligand was [^125I]LSD at a final concentration of 0.82 nM. Nonspecific binding was determined with 50 μM of Clozapine. The assay volume was 25 μl. TopSeal-A were applied onto Flashplate microplates and they were incubated at room temperature for 240 minutes in darkness. The radioactivity were quantified by liquid scintillation spectrophotometry (Wallac 1450 Microbeta Trilux) with a count delay of 4 minutes prior to counting and a counting time of 30 seconds per well. Competition binding data were analyzed by using the LIGAND program (Munson and Rodbard, LIGAND: A versatile, computerized approach for characterization of ligand-binding systems. Anal. Biochem. 107: 220-239, 1980) and assays were performed in triplicate determinations for each point.
# [1] = radioligand [125I]LSD 0.82 nM, triplicate determinations, read-out: IC50
# [2] = compound at 10^−6 M, radioligand [125I]LSD 0.82 nM
# T1 sequence (P34969 whole entry): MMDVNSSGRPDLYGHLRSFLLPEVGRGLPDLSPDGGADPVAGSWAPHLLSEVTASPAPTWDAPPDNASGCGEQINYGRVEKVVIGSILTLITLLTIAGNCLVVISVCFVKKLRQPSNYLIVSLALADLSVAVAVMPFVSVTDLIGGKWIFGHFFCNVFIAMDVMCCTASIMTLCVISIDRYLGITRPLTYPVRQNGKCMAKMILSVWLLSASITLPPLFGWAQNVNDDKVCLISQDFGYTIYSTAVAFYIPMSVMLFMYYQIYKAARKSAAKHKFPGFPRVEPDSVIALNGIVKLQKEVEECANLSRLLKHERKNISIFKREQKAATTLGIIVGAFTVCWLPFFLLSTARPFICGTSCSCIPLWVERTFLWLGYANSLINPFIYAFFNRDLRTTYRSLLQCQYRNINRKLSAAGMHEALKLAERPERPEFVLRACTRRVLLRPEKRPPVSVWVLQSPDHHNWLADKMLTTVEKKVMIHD
smiles,measurement,setting,value
COc1ccc(C(C)C)cc1CN1CCN(c2cccc3[nH]ccc23)CC1 [4-(4-(5-isopropyl-2-methoxybenzyl)piperazin-1-yl)-1H-indole],IC50,,28.7 nM
same,inhibition at 1 µM,,76.6%
CCOc1ccccc1N1CCN(Cc2c[nH]c3ccccc23)CC1 [3-((4-(2-ethoxyphenyl)piperazin-1-yl)methyl)-1H-indole],IC50,,440 nM
same,inhibition at 1 µM,,70%
"O=c1[nH]c2ccccc2n1C1=CCN(CCCOc2ccccc2)CC1 [1-(1-(3-phenoxypropyl)-1,2,3,6-tetrahydropyridin-4-yl)-1H-benzo[d]imidazol-2(3H)-one]",IC50,[1],1260 nM
same,inhibition at 1 µM,,67.6%
"COc1ccccc1N1CCN(CCC(=O)Nc2ccc3c(c2)CCC3)CC1 [N-(2,3-dihydro-1H-inden-5-yl)-3-(4-(2-methoxyphenyl)piperazin-1-yl)propanamide]",inhibition at 1 µM,[2],65.7%
same,IC50,[1],1390 nM
"O=c1[nH]c2ccccc2n1C1=CCN(CCOc2ccccc2)CC1 [1-(1-(2-phenoxyethyl)-1,2,3,6-tetrahydropyridin-4-yl)-1H-benzo[d]imidazol-2(3H)-one]",inhibition at 1 µM,[2],85.3%
same,IC50,[1],314 nM
"CN(C)S(=O)(=O)c1ccc2[nH]cc(CCN)c2c1 [3-(2-aminoethyl)-N,N-dimethyl-1H-indole-5-sulfonamide]",IC50,[1],173 nM
same,inhibition at 1 µM,,84.3%
CC(C)Oc1ccccc1N1CCN(Cc2ccc(-n3ccnc3)cc2)CC1 [1-(4-(1H-imidazol-1-yl)benzyl)-4-(2-isopropoxyphenyl)piperazine],IC50,[1],278 nM
same,inhibition at 1 µM,,74.3%
COc1ccccc1N1CCN(CCC(O)c2ccccc2)CC1 (stereo not drawn) [3-(4-(2-methoxyphenyl)piperazin-1-yl)-1-phenylpropan-1-ol],inhibition at 1 µM,[2],78.5%
same,IC50,[1],139 nM
CC(C)Oc1ccccc1N1CCN(Cc2ccc(Cl)nc2)CC1 [1-((6-chloropyridin-3-yl)methyl)-4-(2-isopropoxyphenyl)piperazine],inhibition at 1 µM,[2],82.5%
O=C(c1cccs1)C1CN2CCC1CC2 (stereo not drawn) [quinuclidin-3-yl(thiophen-2-yl)methanone],IC50,,983 nM
same,inhibition at 1 µM,,52.1%
O=c1[nH]c2ccccc2n1C1CCN(CCOc2ccccc2)CC1 [1-(1-(2-phenoxyethyl)piperidin-4-yl)-1H-benzo[d]imidazol-2(3H)-one],inhibition at 1 µM,[2],76.1%
same,IC50,[1],236 nM
